Data on two molecules can be found in article PMC9804387, “Substrate Peptidomimetic Inhibitors of P. falciparum Plasmepsin X with Potent Antimalarial Activity” (Chemmedchem, 2022).

In assay [1] the test system is PMIX processing of the ASP protein. Put plainly: ASP processing inhibition assay in parasites (western blot, anti-HA). Format: cell-based, P. falciparum. As to conditions: 38 at 10 μM, HA‐tagged ASP parasites. The procedure: In this experiment, synchronized late trophozoite/early schizont stage parasites, expressing HA‐tagged ASP, were incubated with 38 (10 μM), the positive control WM382 (1) (2.5 nM) (a dual potent inhibitor of PMIX and PMX) and the DMSO vehicle control. Parasites from each treatment condition were then lysed and the processing of the known PMX and PMIX substrates were detected by western blot as a corollary of protease activity.
P. falciparum ASP and SERA5 Processing Inhibition Assay. P. falciparum substrate processing inhibition assays were performed as previously described.[28] Synchronized ring stage cultures were treated with test compounds 38 (10 μM) and WM382 (2.5 nM)[28] or DMSO as a vehicle control. The parasite cultures were grown to the schizont stage before passing over LD magnetic columns (Miltenyi Biotech) to remove uninfected erythrocytes. Parasites were eluted from columns with RPMI 1640 (in‐house) culture medium to which the appropriate inhibitor at the same concentration had been added. Eluted parasites were adjusted to 5×10^6 schizonts/mL and 150 μL added per well of a 96‐well flat‐bottomed culture plate. […] HA‐tagged apical sushi protein (ASP) was detected in the merozoite fraction with anti‐HA mAb and SERA5 was detected in the supernatant fraction with an anti‐SERA5 polyclonal Ab. […]
(A western blot detects proteins with antibodies after separation by electrophoresis.)

In the next assay the test system is Pf 3D7. On the set-up: method as in PMID 29074775, PMID 32109369, PMID 23260352, PMID 29519896. As to conditions: Figure 1, described in literature; cited from earlier work.

SMILES strings stand for the structures. Structures can show the parent of a compound that is named as a salt.

For `C[C@@H](NC[C@@H](O)[C@H](Cc1ccccc1)NC(=O)[C@H](CO)NC(=O)OCc1ccccc1)c1ccccc1` [Compd 38, Cbz‐Ser‐Phe‐HEA‐Bn(CH3)⋅TFA], the “ASP processing by PMIX (western blot)” value in assay [1] was “partial inhibition of PMIX processing”.

The term EC50 denotes the concentration giving half of the maximal effect. With `C[C@@H](NC[C@@H](O)[C@H](Cc1ccccc1)NC(=O)c1ccc(C(=O)N2CCN(C)CC2)cc1)c1ccccc1` [Compd 2, reference compound], the EC50 in the assay with Pf 3D7 is 0.6 nM.
